Assay results as given in patent EP1270000A2, “Benzoic acid substituted benzopyrans for the treatment of atherosclerosis” (Pfizer Products Inc., priority 2001, dated 2003).

Key:
[1] = system: 129E^-/-; test: Lesion analysis (Oil red O, aortic sinus and valve) in atherosclerotic mice; format: in vivo; parameters: Lesion size: unit not given here; conditions: chow diet; for Sinus (% lesion) / Valve (%lesion): 129E^-/-, F, mean ±SD
Source text: (§1) Mouse line derivation. Genetically modified apolipoprotein E-deficient (ApoE^-/-), low density lipoprotein (LDL) receptor-deficient (LDLr^-/-), and monocyte chemoattractant protein-1-deficient (MCP-1^-/-) mice used in the present study have been previously described and characterized [See Rutledge, B.J. et. al., J. Immunol., 1995;155:4838-4843; and Nakashima Y, et. al., Arterioscler. Thromb., 1994;14(1):133-140]. To obtain mice homozygous for both the apoE and MCP-1 (ScyA2) null alleles, male ApoE^-/- mice on a C57B/6 background (C57E^- ^/-) were mated with heterozygous female MCP-1^-/+ mice on a C57B/6 background. The resulting ApoE^-/- x MCP-1^-/+ progeny were identified by Southern blot analysis and inbred to produce ApoE^-/- x MCP-1^-/- (C57E^-/- x MCP-1 ^-/-) and control ApoE ^-/- x MCP-1^+/+ (C57E-/-) mice. ApoE^-/- mice on the mixed genetic background 1290la x C57B/6 (129E^-/-) were bred in-house and derived from brother and sister matings. All mice were weaned at 21 days, maintained on a 12 hour light/dark cycle and fed either a chow or a Western-type diet [See, Bourassa, P.K., et. al., Proc Natl Acad. Sci. USA, 1996;93:10022-10027].
(§2) Administration of Compound. Compound of formula I, preferably (3S, 4R)-7-(2-carboxy-5-trifluoromethylphenyl)-4-hydroxy-3-benzyl-3,4-dihydro-2H-1-benzopyran, was evaluated for its effects on lesion development in age-matched groups of mice (15 to 30 weeks of age at time of sacrifice) using a 35 day treatment protocol. Subgroups of mice were treated with (3S, 4R)-7-(2-carboxy-5-trifluoromethylphenyl)-4-hydroxy-3-benzyl-3,4-dihydro-2H-1-benzopyran for shorter times (7-14 days) for evaluation of acute changes in tissue gene expression as noted in the table and figure legends. In all study groups, the compound was administered by oral gavage once daily in a vehicle comprised of 0.6% Tween 80 + 0.25% methylcellulose in PBS. […]
(§3) Lesion Analysis. To determine cross-sectional lesion area, hearts were perfusion-fixed in 4% paraformaldehyde, infiltrated with 30% gum sucrose for 24 hours at 4°C, and embedded in OCT compound and sectioned 10µm, -18°C, as previously described [See Borgeat P., et.al., J. Biol. Chem., 1979;254:2643-2646] and the sections were stained with Oil red O (Polyscientific, Bay Shore NY) and counterstained with Gill III hematoxylin (Sigma, St. Louis MO). Each section of the aortic valve was evaluated for Oil red O staining area by capturing images directly from a RGB camera attached to a Leitz Laborlux S (Leica) light microscope for display on a Trinitron RGB monitor. Image analysis was performed using ImagePro 3.1' software as described previously [See Bourassa, P.K., et. al., Proc Natl. Acad. Sci. USA, 1996;93:10022-10027]. Results are expressed as the average lesion size per section or as the percent of the total cross sectional vessel wall stained with Oil red O. For each animal, the average lesion area of 12-16 sections was determined and data are expressed as lesion size or mean percent lesion area ±S.D.
Referring to Table 2, Apolipoprotein E-deficient mice on a mixed 129Io/B6 (129E^-/-) or a C57BI/6 background (C57E^-/-), mice homozygous low density lipoprotein receptor deficient mice LDLR^-/- mice were treated for 35 days orally with (3S, 4R)-7-(2-carboxy-5-trifluoromethylphenyl)-4-hydroxy-3-benzyl-2H-1-benzopyran) at doses indicated. LDLR^-/- was fed a Western diet; all other strains were maintained on chow diet. The mean percent lesion area in 10 µ sections of the aortic sinus and valve region was calculated following oil red O staining, Values are reported as means ±SD. The term "ND" is defined as Not Determined. The term "TPC" is defined as Total Plasma Cholesterol. The term "TG" is defined as Triglycerides. The term "sinus" is defined as a region of the aortic válve; moving up from the base of the heart; which begins at the first appearance of the aortic valve cusps, dividing the lumen into three distinct regions. In the sinus, the aortic wall is bulging and irregular. […]

[2] = system: C57E^-/-; test: as above; format: in vivo; conditions: 100 mg/kg orally 35 days, chow diet, mean ±SD
Source text: as §1
as §2, with “legends.” for “legends. In all study groups, the compound was administered by oral gavage once daily in a vehicle comprised of 0.6% Tween 80 + 0.25% methylcellulose in PBS.”
(§4) Lesion Analysis. […] Each section of the aortic valve was evaluated for Oil red O staining area by capturing images directly from a RGB camera attached to a Leitz Laborlux S (Leica) light microscope for display on a Trinitron RGB monitor. […] Results are expressed as the average lesion size per section or as the percent of the total cross sectional vessel wall stained with Oil red O. For each animal, the average lesion area of 12-16 sections was determined and data are expressed as lesion size or mean percent lesion area ±S.D.
Referring to Table 2, Apolipoprotein E-deficient mice on a mixed 129Io/B6 (129E^-/-) or a C57BI/6 background (C57E^-/-), mice homozygous low density lipoprotein receptor deficient mice LDLR^-/- mice were treated for 35 days orally with (3S, 4R)-7-(2-carboxy-5-trifluoromethylphenyl)-4-hydroxy-3-benzyl-2H-1-benzopyran) at doses indicated. […] The mean percent lesion area in 10 µ sections of the aortic sinus and valve region was calculated following oil red O staining, Values are reported as means ±SD. The term "ND" is defined as Not Determined. […]

[3] = system: LDLr^-/-; test: as above; format: in vivo; parameters: Lesion size: unit not given here
Source text: as §1
Administration of Compound. Compound of formula I, preferably (3S, 4R)-7-(2-carboxy-5-trifluoromethylphenyl)-4-hydroxy-3-benzyl-3,4-dihydro-2H-1-benzopyran, was evaluated for its effects on lesion development in age-matched groups of mice (15 to 30 weeks of age at time of sacrifice) using a 35 day treatment protocol. […]
as §4, with “±S.D. […]” for “±S.D.”

[4] = system: MCP-1 ^-/- X ApoE^-/-; test: Lesion analysis (Oil red O, aortic sinus and valve) in MCP-1 deficient mice; format: in vivo; conditions: M, mean ±SD
Source text: as §1
(§5) Administration of Compound. Compound of formula I, preferably (3S, 4R)-7-(2-carboxy-5-trifluoromethylphenyl)-4-hydroxy-3-benzyl-3,4-dihydro-2H-1-benzopyran, was evaluated for its effects on lesion development in age-matched groups of mice (15 to 30 weeks of age at time of sacrifice) using a 35 day treatment protocol. Subgroups of mice were treated with (3S, 4R)-7-(2-carboxy-5-trifluoromethylphenyl)-4-hydroxy-3-benzyl-3,4-dihydro-2H-1-benzopyran for shorter times (7-14 days) for evaluation of acute changes in tissue gene expression as noted in the table and figure legends. In all study groups, the compound was administered by oral gavage once daily in a vehicle comprised of 0.6% Tween 80 + 0.25% methylcellulose in PBS. Mice received either vehicle alone, 30mg/kg/day, or 100mg/kg/day of compound of formula I.
as §3
Referring to Table 4, mice homozygous for the null alleles of Monocyte chemoattractant protein-1 (MCP-1^-/-) and apolipoprotein E (ApoE^-/-) (MCP-1 ^-/- X ApoE^-/-) on a C57bl/6 background (C57E^-/-) mice were treated for 35 days orally with (3S, 4R)-7-(2-carboxy-5-trifluoromethylphenyl)-4-hydroxy-3-benzyl-2H-1-benzopyran) at doses indicated 0, 30 or 100mg/kg. The mean percent lesion area in 10 µ sections of the aortic sinus and valve region was calculated following oil red O staining, Values are reported as means ±SD. The term "ND" is defined as Not Determined. The term "TPC" is defined as Total Plasma Cholesterol. The term "TG" is defined as Triglycerides. The term "sinus" is defined as a region of the aortic valve; moving up from the base of the heart; which begins at the first appearance of the aortic valve cusps, dividing the lumen into three distinct regions. […]

[5] = Body weight of treated mice; format: in vivo
Description: as §2

[6] = system: CD11b; test: Immunohistochemical staining of macrophages (CD11b) in atherosclerotic lesions; format: in vivo, mice; conditions: 30 mg/kg/d orally for 35 days, mean ± SD, N=8/group
Description: as §5
Immunohistochemical Staining of Macrophages. Serial paraformaldehyde fixed, OCT embedded sections of aortic valves were immunostained for macrophages using rat monoclonal antibodies (IgG2b) against MOMA-2 (BioSource) and CD11b (Pharmingen). Endogenous biotin and peroxidase activity were blocked by incubating each section with an avidin/biotin solution (Vector Laboratories), and 0.3% H2O2 in 1% bovine serum, respectively. […] Results are expressed as the percent of the total cross-sectional vessel wall area (normal + diseased area/ section, excluding the lumen) stained with DAB. […]

[7] = 15 wks, 30 mg/kg orally 35 days
[8] = 15 wks, 50 mg/kg orally 35 days
[9] = 15 wks, 100 mg/kg orally 35 days
[10] = 20 wks, 30 mg/kg orally 35 days
[11] = 24 wks, 100 mg/kg orally 35 days
[12] = LDLr^-/-, M, 18 wks, 30 mg/kg orally 35 days, Western diet, mean ±SD
[13] = 30 wks, 30 mg/kg orally 35 days
[14] = 30 wks, 100 mg/kg orally 35 days

O=C(O)c1ccc(C(F)(F)F)cc1-c1ccc2c(c1)OC[C@H](Cc1ccccc1)[C@H]2O [(3S, 4R)-7-(2-carboxy-5-trifluoromethylphenyl)-4-hydroxy-3-benzyl-3,4-dihydro-2H-1-benzopyran]
Sinus (% lesion) [1, 7]: 19.6±2% | Valve (%lesion) [1, 7]: 21.6±2% | Sinus (% lesion) [1, 8]: 14.7±2 % | Valve (%lesion) [1, 8]: 16.3±2 % | Sinus (% lesion) [1, 9]: 7.9±1 % | Valve (%lesion) [1, 9]: 8.0±2 % | Sinus (% lesion) [1, 10]: 24.4±3% | Valve (%lesion) [1, 10]: 25.9±3 % | Sinus (% lesion) [1, 11]: 30.0±1% | Valve (%lesion) [1, 11]: 34.0±1% | Lesion size ([1]; female 129E^-/-, 30 mg/kg/d orally for 35 days, mean ± SD, N=8/group): 10650±12133 | Sinus (% lesion) ([2]; F, 22 wks): 38.8±3% | Valve (%lesion) ([2]; F, 22 wks): 39±2% | Sinus (% lesion) ([2]; M, 16 wks): 10.4±3 % | Valve (%lesion) ([2]; M, 16 wks): 7.8±2 % | Sinus (% lesion) [3, 12]: 5.6±2 % | Valve (%lesion) [3, 12]: 6.5±3 % | Lesion size ([3]; male LDLr^-/-, Western-type diet, 30 mg/kg/d orally for 35 days, mean ± SD, N=8/group): 19955±7278 | Sinus (% lesion) [4, 7]: 13.3±2% | Valve (%lesion) [4, 7]: 12.8±2% | Sinus (% lesion) [4, 9]: 9.8±1% | Valve (%lesion) [4, 9]: 9.7±1% | Sinus (% lesion) [4, 13]: 41.4±5% | Valve (%lesion) [4, 13]: 54.2±7% | Sinus (% lesion) [4, 14]: 43.1±5% | Valve (%lesion) [4, 14]: 50.0±4% | Body wt(gm) ([5]; 129E^-/-, F, 15 wks, 30 mg/kg orally 35 days, chow diet): 26±2 gm | Body wt(gm) ([5]; 129E^-/-, F, 15 wks, 50 mg/kg orally 35 days, chow diet): 25±2 gm | Body wt(gm) ([5]; 129E^-/-, F, 15 wks, 100 mg/kg orally 35 days, chow diet): 25±1 gm | Body wt(gm) ([5]; 129E^-/-, F, 20 wks, 30 mg/kg orally 35 days, chow diet): 29±1 gm | Body wt(gm) ([5]; 129E^-/-, F, 24 wks, 100 mg/kg orally 35 days, chow diet): 31±1 gm | Body wt(gm) ([5]; C57E^-/-, F, 22 wks, 100 mg/kg orally 35 days, chow diet): 30 gm | Body wt(gm) ([5]; C57E^-/-, M, 16 wks, 100 mg/kg orally 35 days, chow diet): 29±1 gm | Body wt(gm) ([5]; LDLr^-/-, M, 18 wks, 30 mg/kg orally 35 days, Western diet): 31±2 gm | Body wt(gm) ([5]; MCP-1 ^-/- X ApoE^-/-, M, 15 wks, 30 mg/kg orally 35 days): 29±1 gm | Body wt(gm) ([5]; MCP-1 ^-/- X ApoE^-/-, M, 15 wks, 100 mg/kg orally 35 days): 29±1 gm | Body wt(gm) ([5]; MCP-1 ^-/- X ApoE^-/-, M, 30 wks, 30 mg/kg orally 35 days): 31±1 gm | Body wt(gm) ([5]; MCP-1 ^-/- X ApoE^-/-, M, 30 wks, 100 mg/kg orally 35 days): 26±1 gm | % CD11b (mean percent of the lesion staining positively for CD11b) ([6]; female 129E^-/-, chow diet): 3.5±1.0 % | % CD11b (mean percent of the lesion staining positively for CD11b) ([6]; male LDLr^-/-, Western-type diet): 3.5±2.5 %
